In patent EP4603105A1, “PHARMACEUTICAL COMPOSITION CONTAINING CYCLIC COMPOUND HAVING SELECTIVE KRAS INHIBITORY EFFECT AGAINST HRAS AND NRAS” (CHUGAI SEIYAKU KABUSHIKI KAISHA, priority 2022, dated 2024):
Read-outs that look alike come from different tables or passages of the source.

Experiments:
[1] = tested on: human lung cancer strain NCI-H441; test: NCI-H441 cell proliferation inhibitory activity (CellTiter-Glo, 4 days); format: cell-based; conditions: read-out: NCl-H441 IC50
Method in brief: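 Proliferation was scored by […] measured after the reagent was added to cultures kept at 37°C in 5% carbon dioxide.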

[2] = molecular target: GDP-bound NRAS wild-type protein (Homo sapiens, UniProt P01111); test: Binding to NRAS by surface plasmon resonance (SPR), KD and KD ratio to KRAS
Chain of GDP-bound NRAS wild-type protein (P01111 whole entry): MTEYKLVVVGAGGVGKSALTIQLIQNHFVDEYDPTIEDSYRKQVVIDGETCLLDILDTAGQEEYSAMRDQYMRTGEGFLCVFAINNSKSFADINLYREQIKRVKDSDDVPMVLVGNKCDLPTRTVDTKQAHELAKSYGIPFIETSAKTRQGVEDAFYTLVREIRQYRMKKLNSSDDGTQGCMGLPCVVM
Method in brief: (§1)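 Single-cycle kinetics on GDP-loaded biotin-Avi RAS captured to ~100–300 RU; 75 s ascending injections, 100 µL/min, 30°C. HBS pH 7.4 + 10 mM MgCl2/10 µM GDP/4% DMSO. 1:1 fit, KD.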

[3] = molecular target: GDP-bound KRAS wild-type protein (Homo sapiens, UniProt P01116); test: Binding to KRAS by surface plasmon resonance (SPR), dissociation constant KD
Chain of GDP-bound KRAS wild-type protein (P01116 1-188 isoform P01116-2): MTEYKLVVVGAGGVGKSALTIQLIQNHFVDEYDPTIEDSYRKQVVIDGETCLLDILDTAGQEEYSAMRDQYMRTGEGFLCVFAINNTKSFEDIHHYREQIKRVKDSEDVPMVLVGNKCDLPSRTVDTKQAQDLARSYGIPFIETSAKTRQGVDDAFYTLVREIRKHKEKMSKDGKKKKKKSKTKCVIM
Method in brief: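 Running buffer contained 10 µM GDP and 10 mM MgCl2 to keep RAS in the GDP state, with 4% DMSO at pH 7.4. Compounds were flowed at 100 µL/min in 75 s steps of rising concentration over captured biotin-Avi RAS at 30°C. Sensorgrams were fitted 1:1 for KD.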

HRAS wild-type protein = HRAS wild-type protein (Homo sapiens, UniProt P01112); test: Binding to HRAS by surface plasmon resonance (SPR), KD and KD ratio to KRAS
Chain of HRAS wild-type protein (P01112 whole entry): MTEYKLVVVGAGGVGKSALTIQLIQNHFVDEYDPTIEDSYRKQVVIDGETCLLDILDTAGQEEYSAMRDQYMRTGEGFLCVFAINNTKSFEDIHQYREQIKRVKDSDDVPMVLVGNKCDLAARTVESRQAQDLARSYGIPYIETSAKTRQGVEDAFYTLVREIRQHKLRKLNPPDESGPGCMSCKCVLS
Method in brief: as §1

[4] = 50% proliferation inhibitory concentration, four days
[5] = ratio of KD with respect to GDP-bound NRAS wild-type protein to KD with respect to KRAS
[6] = Single Cycle Kinetics, 1:1 binding model
[7] = ratio of KD with respect to HRAS wild-type protein to KD with respect to KRAS
[8] = ratio of KD for GDP-bound NRAS wild-type protein to KD for KRAS
[9] = ratio of KD for HRAS wild-type protein to KD for KRAS

SMILES	IC50 [1, 4]	NRAS /KRAS [2, 5]	Kd [3, 6]	HRAS /KRAS (HRAS wild-type protein; [7])	IC50 ([1]; NCI-H441 cells, 4 days)	NRAS /KRAS [2, 8]	Kd ([3]; Single Cycle Kinetics)	HRAS /KRAS (HRAS wild-type protein; [9])	Kd ([3]; 1:1 binding model)
CCO[C@@H]1C[C@H]2C(=O)NC3(CCC3)C(=O)N(C)[C@@H](C3CCCC3)C(=O)N(C)[C@H](C(=O)N3CCOCC3)CC(=O)N(C)[C@@H](Cc3ccsc3)C(=O)N[C@@H]([C@@H](C)CC)C(=O)N(C)CC(=O)N(C)[C@H]3CCCCCN(C3=O)[C@@H](Cc3ccc(F)cc3)C(=O)N(C)CC(=O)N[C@@H](CCc3cc(F)c(C(F)(F)F)c(F)c3)C(=O)N2C1 [PP1184]	91.9 nM	B (a compound having 3 or more and less than 10 is denoted as B)	0.16 nM	B (a compound having 3 or more and less than 10 is denoted as B)	–	–	–	–	–
CCO[C@@H]1C[C@H]2C(=O)NC3(CCC3)C(=O)N(C)[C@@H](C(CC)CC)C(=O)N(C)[C@H](C(=O)N(C)C)CC(=O)N(C)[C@@H](CC3CC3)C(=O)N[C@@H]([C@@H](C)CC)C(=O)N(C)CC(=O)N(C)[C@H]3C/C=C\CCN(C3=O)[C@@H](CC3CCCCC3)C(=O)N(C)CC(=O)N[C@@H](CCc3cc(F)c(C(F)(F)F)c(F)c3)C(=O)N2C1 [PP1428]	38.8 nM	AA (a compound having 20 or more is denoted as AA)	0.87 nM	A (a compound having 10 or more and less than 20 is denoted as A)	–	–	–	–	–
CCCO[C@@H]1C[C@H]2C(=O)NC3(CCC3)C(=O)N(C)[C@@H](C3CCCC3)C(=O)N(C)[C@H](C(=O)N3CCOCC3)CC(=O)N(C)[C@@H](CC(C)C)C(=O)N[C@@H]([C@@H](C)CC)C(=O)N(C)CC(=O)N(C)[C@H]3CCCCN(C3=O)[C@@H](Cc3ccc(C(F)(F)F)cc3)C(=O)N(C)CC(=O)N[C@@H](CCc3cc(F)c(C(F)(F)F)c(F)c3)C(=O)N2C1 [PP1159]	13 nM	C (A compound having a KD ratio of 0.1 or more and less than 3 is denoted as C)	0.036 nM	B (a compound having 3 or more and less than 10 is denoted as B)	–	–	–	–	–
CCO[C@@H]1C[C@H]2C(=O)NC3(CCC3)C(=O)N(C)[C@@H](C3CCCC3)C(=O)N(C)[C@H](C(=O)N(C)C)CC(=O)N(C)[C@@H](CC)C(=O)N[C@@H]([C@@H](C)CC)C(=O)N(C)CC(=O)N(C)[C@H]3C/C=C\CCN(C3=O)[C@@H](Cc3ccc(C(F)(F)F)cc3)C(=O)N(C)CC(=O)N[C@@H](CCc3ccc(Cl)c(Cl)c3)C(=O)N2C1 [PP1249]	55.4 nM	A (a compound having 10 or more and less than 20 is denoted as A)	0.18 nM	A (a compound having 10 or more and less than 20 is denoted as A)	–	–	–	–	–
CCO[C@@H]1C[C@H]2C(=O)NC3(CC(C)(C)C3)C(=O)N(C)[C@@H](C3CCCC3)C(=O)N(C)[C@H](C(=O)N(C)CC)CC(=O)N(C)[C@@H]([C@H](C)OC)C(=O)N[C@@H]([C@@H](C)CC)C(=O)N(C3CC3)CC(=O)N(C)[C@H]3C/C=C\CCN(C3=O)[C@@H](Cc3ccc(C(F)(F)F)cc3)C(=O)N(C)CC(=O)N[C@@H](CCc3ccc(C(F)(F)F)c(Cl)c3)C(=O)N2C1 [PP3221]	–	–	–	–	51.5 nM	A (a compound having 10 or more and less than 20 is denoted as A)	0.82 nM	A (a compound having 10 or more and less than 20 is denoted as A)	–
CC[C@H](C)[C@@H]1NC(=O)[C@H](CC2CC2)N(C)C(=O)C[C@@H](C)N(C)C(=O)[C@H](C2CCCC2)N(C)C(=O)C2(CCC2)NC(=O)[C@H](CC(F)F)N(C)C(=O)[C@H](CCc2cc(F)c(C(F)(F)F)c(F)c2)NC(=O)CN(C)C(=O)[C@H](Cc2ccc(C(F)(F)F)cc2)N2CC/C=C\C[C@@H](C2=O)N(C)C(=O)CN(C)C1=O [PP1405]	466 nM	A (a compound having 10 or more and less than 20 is denoted as A)	8.5 nM	A (a compound having 10 or more and less than 20 is denoted as A)	–	–	–	–	–
CCO[C@@H]1C[C@H]2C(=O)NC3(CC(C)(C)C3)C(=O)N(C)[C@@H](C3CCCC3)C(=O)N(C)[C@H](C(=O)N(C)CC)CC(=O)N(C)[C@@H]([C@H](C)OC)C(=O)N[C@@H]([C@@H](C)CC)C(=O)N3CCC[C@H]3C(=O)N(C)[C@H]3C/C=C\CCN(C3=O)[C@@H](Cc3ccc(C(F)(F)F)cc3)C(=O)N(C)CC(=O)N[C@@H](CCc3cc(F)c(C(F)(F)F)c(F)c3)C(=O)N2C1 [PP3223]	–	–	–	–	49.6 nM	A (a compound having 10 or more and less than 20 is denoted as A)	1.1 nM	A (a compound having 10 or more and less than 20 is denoted as A)	–
CCC[C@H]1C(=O)N[C@@H]([C@@H](C)CC)C(=O)N(C2CC2)CC(=O)N(C)[C@H]2C/C(F)=C\CCN(C2=O)[C@@H](Cc2ccc(C)cc2)C(=O)N(C)CC(=O)N[C@@H](CCc2cc(F)c(C(F)(F)F)c(F)c2)C(=O)N2C[C@H](OCC)C[C@H]2C(=O)NC2(CCC2)C(=O)N(C)[C@@H](C2CCCC2)C(=O)N(C)[C@H](C(=O)N(C)C)CC(=O)N1C [PP3519]	–	–	–	–	22.3 nM	B (a compound having 3 or more and less than 10 is denoted as B)	0.87 nM	B (a compound having 3 or more and less than 10 is denoted as B)	–
CCO[C@@H]1C[C@H]2C(=O)NC3(CCC3)C(=O)N(C)[C@@H](C3CCCC3)C(=O)N(C)[C@H](C(=O)N(C)C)CC(=O)N(C)[C@@H](CC(F)F)C(=O)N[C@@H]([C@@H](C)CC)C(=O)N(C)CC(=O)N(C)[C@H]3CCCCCN(C3=O)[C@@H](Cc3ccc(F)cc3)C(=O)N(C)CC(=O)N[C@@H](CCc3cc(F)c(C(F)(F)F)c(F)c3)C(=O)N2C1 [PP1191]	13 nM	A (a compound having 10 or more and less than 20 is denoted as A)	0.056 nM	B (a compound having 3 or more and less than 10 is denoted as B)	–	–	–	–	–
CCC[C@H]1C(=O)N[C@@H]([C@@H](C)CC)C(=O)N(C)CC(=O)N(C)[C@H]2C/C=C\CCN(C2=O)[C@@H](CC2CCCCC2)C(=O)N(C)CC(=O)N[C@@H](CCc2ccc(C(F)(F)F)c(OC)c2)C(=O)N2C[C@@H](C)C[C@H]2C(=O)N(C)C2(CCC2)C(=O)N(C)[C@@H](C2CCCC2)C(=O)N(C)[C@H](C(=O)N(C)C)CC(=O)N1C [PP2370]	–	–	–	–	25.7 nM	B (a compound having 3 or more and less than 10 is denoted as B)	–	B (a compound having 3 or more and less than 10 is denoted as B)	0.54 nM
CCO[C@@H]1C[C@H]2C(=O)OC3(CCC3)C(=O)N(C)[C@@H](C3CCCC3)C(=O)N(C)[C@H](C(=O)N(C)C)CC(=O)N(C)[C@@H](CC(C)C)C(=O)N[C@@H]([C@@H](C)CC)C(=O)N(C3CC3)CC(=O)N(C)[C@H]3C/C=C\CCN(C3=O)[C@@H](Cc3ccc(C)cc3)C(=O)N(C)CC(=O)N[C@@H](CCc3ccc(C(F)(F)F)c(OC)c3)C(=O)N2C1 [PP3381]	–	–	–	–	18.7 nM	A (a compound having 10 or more and less than 20 is denoted as A)	1.1 nM	A (a compound having 10 or more and less than 20 is denoted as A)	–
CCCOC[C@H]1C(=O)N[C@@H]([C@@H](C)OCC)C(=O)N2CCC[C@H]2C(=O)N(C)[C@H]2C/C=C\CCN(C2=O)[C@@H](Cc2ccc(C)cc2)C(=O)N(C)CC(=O)N[C@@H](CCc2cc(F)c(C(F)(F)F)c(F)c2)C(=O)N2C[C@H](OCC)C[C@H]2C(=O)NC2(CC(C)(C)C2)C(=O)N(C)[C@@H](C2CCCC2)C(=O)N(C)[C@H](C(=O)N(C)CC)CC(=O)N1C [PP2432]	–	–	–	–	138 nM	A (a compound having 10 or more and less than 20 is denoted as A)	–	A (a compound having 10 or more and less than 20 is denoted as A)	1.4 nM
CCC[C@H]1C(=O)N[C@@H]([C@@H](C)CC)C(=O)N2CCC[C@H]2C(=O)N(C)[C@H]2C/C=C\CCN(C2=O)[C@@H](Cc2ccc(C)cc2)C(=O)N(C)CC(=O)N[C@@H](CCc2ccc(C(F)(F)F)c(Cl)c2)C(=O)N2CC[C@H](OC)[C@H]2C(=O)N(C)C2(CCC2)C(=O)N(C)[C@@H](C2CCCC2)C(=O)N(C)[C@H](C(=O)N(C)C)CC(=O)N1C [PP3235]	–	–	–	–	7 nM	A (a compound having 10 or more and less than 20 is denoted as A)	0.21 nM	A (a compound having 10 or more and less than 20 is denoted as A)	–
CCC(CC)[C@H]1C(=O)N(C)[C@H](C(=O)N(C)C)CC(=O)N(C)[C@@H](COC)C(=O)N[C@@H]([C@@H](C)CC)C(=O)N(C2CC2)CC(=O)N(C)[C@H]2C/C=C\CCN(C2=O)[C@@H](CC2CCC(F)(F)CC2)C(=O)N(C)CC(=O)N[C@@H](CCc2cc(F)c(C(F)(F)F)c(F)c2)C(=O)N2C[C@H](OC3CCCC3)C[C@H]2C(=O)NC2(CC(C)(C)C2)C(=O)N1C [PP2627]	–	–	–	–	95.2 nM	A (a compound having 10 or more and less than 20 is denoted as A)	–	A (a compound having 10 or more and less than 20 is denoted as A)	2.6 nM
C=CC[C@H]1C(=O)N(C)[C@H](C(=O)N(C)C)CC(=O)N(C)[C@@H](CCC)C(=O)N[C@@H]([C@@H](C)CC)C(=O)N(C)CC(=O)N(C)[C@H]2C/C=C\CCN(C2=O)[C@@H](Cc2ccc(C(F)(F)F)cc2)C(=O)N(C)CC(=O)N[C@@H](CCc2cc(F)c(C(F)(F)F)c(F)c2)C(=O)N2C[C@H](OCC)C[C@H]2C(=O)N(C)C2(CCC2)C(=O)N1C [PP3336]	–	–	–	–	66.1 nM	A (a compound having 10 or more and less than 20 is denoted as A)	1.5 nM	A (a compound having 10 or more and less than 20 is denoted as A)	–
